From ChEMBL document CHEMBL3137667, “[Drug-induced liver injury; fourteenth updated edition of the bibliographic database of liver injuries and related drugs]” (Gastroenterol Clin Biol, 2004) come the findings set out here.

The conditions of data set [1]: human.
The conditions of data set [2]: human, serum.
Data set [3] can be described thus: Highest frequency of moderate liver toxicity observed during clinical trials, expressed as a percentage. [column '% BIOL' in source]. Conditions: human.
The conditions of data set [4]: human, serum, 4383 h.
For data set [5] the following is noted: human. The source holds these as a separate data set.
For data set [6] the following is noted: human, serum. This is another data set of the same source.
The conditions of data set [7]: human. This is another data set of the same source.
The conditions of data set [8]: human. The source holds these as a separate data set.
The conditions of data set [9]: human. The source holds these as a separate data set.
The conditions of data set [10]: human. The source holds these as a separate data set.
Data set [11] is described as follows: Highest frequency of acute liver toxicity observed during clinical trials, expressed as a percentage. [column '% AIGUE' in source]. Conditions: human.
For data set [12] the following is noted: human. The source holds these as a separate data set.
For data set [13] the following is noted: human. This is another data set of the same source.
The conditions of data set [14]: human. The source holds these as a separate data set.
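Wherever Hepatotoxicity (association with vascular disease) is given: count of indexed literature references reporting vascular liver injury in humans, e.g. peliosis hepatitis, hepatic veno-occlusive disease or Budd-Chiari syndrome.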
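Wherever Hepatotoxicity (benign tumour) is given: value is a count of indexed literature references citing a benign tumour confirmed by histopathology.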
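Wherever Hepatotoxicity (choleostasis) is given: human cholestatic liver injury, shown by histopathology or by peak ALT or AST elevation over alkaline phosphatase ratio below 2, value counts indexed literature reports.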
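Wherever Hepatotoxicity (chronic liver disease) is given: chronic liver injury confirmed by histopathology or persistently raised serum aminotransferase activity beyond 6 months, value given as the count of indexed literature references.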
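Wherever Hepatotoxicity (cirrhosis) is given: value is a count of indexed literature references reporting cirrhosis confirmed by histopathology.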
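Wherever Hepatotoxicity (cytolytic) is given: human cytolytic liver injury, shown by histopathology or by a ratio above 5 of peak ALT or AST elevation to alkaline phosphatase elevation, value counts indexed references.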
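Wherever Hepatotoxicity (granulomatous hepatitis) is given: value is a count of indexed literature references reporting granulomatous liver disease confirmed by histopathology.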
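Wherever Hepatotoxicity (malignant tumour) is given: malignant tumour confirmed by histopathology, value gives the count of indexed literature references reporting it.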
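Wherever Hepatotoxicity (severe hepatitis) is given: human clinical data: severe hepatitis, meaning potentially life-threatening liver failure or clinically observed cases, the value counts how many indexed literature references report it.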
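Wherever Hepatotoxicity (steatosis) is given: steatosis confirmed by histopathology, value is the count of indexed references.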

Regarding `CC[C@H]1OC(=O)[C@H](C)[C@@H](O[C@H]2C[C@@](C)(OC)[C@@H](O)[C@H](C)O2)[C@H](C)[C@@H](O[C@@H]2O[C@H](C)C[C@H](N(C)C)[C@H]2O)[C@](C)(O)C[C@@H](C)[C@@H]2N[C@@H](COCCOC)O[C@H]([C@H]2C)[C@]1(C)O` [DIRITHROMYCIN], in data set [1], the “Hepatotoxicity (steatosis)” value came out at 0. In addition, the entries for the “Hepatotoxicity (moderate)” value in [2] and in data set [3] were 3 and 28.6%, respectively. Further, in data set [4], the “Hepatotoxicity (chronic liver disease)” value is on record as 0. Further, in data set [5], the “Hepatotoxicity (cytolytic)” value stood at 0. The “Hepatotoxicity (acute)” value in data set [6] was 0; in data set [11] it was 0%. Moreover, the “Hepatotoxicity (association with vascular disease)” value in data set [7] worked out at 0. In addition, in data set [8], the “Hepatotoxicity (granulomatous hepatitis)” value was found to be 0. Also, the “Hepatotoxicity (cirrhosis)” value in data set [9] is recorded as 0. For the same compound, the “Hepatotoxicity (benign tumour)” value in data set [10] was determined as 0. Also, the “Hepatotoxicity (malignant tumour)” value in data set [12] is on record as 0. In addition, the “Hepatotoxicity (severe hepatitis)” value in [13] was determined as 0. For the same compound, the “Hepatotoxicity (choleostasis)” value in data set [14] is on record as 0.
With `O=C(O[C@@H]1C[C@@H]2C[C@H]3C[C@H](C1)N2CC3=O)c1c[nH]c2ccccc12` [DOLASETRON], the “Hepatotoxicity (steatosis)” value in data set [1] amounted to 0. Also, the “Hepatotoxicity (moderate)” value stood at 1 in data set [2] and 6.7% in data set [3]. Further, the “Hepatotoxicity (chronic liver disease)” value in [4] was 0. Also, the “Hepatotoxicity (cytolytic)” value in [5] worked out at 0. The results for the “Hepatotoxicity (acute)” value in data set [6] and in data set [11] were 0 and 0%, respectively. For the same compound, the “Hepatotoxicity (association with vascular disease)” value in data set [7] is 0. In data set [8], the “Hepatotoxicity (granulomatous hepatitis)” value was 0. Besides, the “Hepatotoxicity (cirrhosis)” value in data set [9] was found to be 0. Also, in [10], the “Hepatotoxicity (benign tumour)” value turned out to be 0. Moreover, the “Hepatotoxicity (malignant tumour)” value in data set [12] was 0. In [13], the “Hepatotoxicity (severe hepatitis)” value came to 0. In data set [14], the “Hepatotoxicity (choleostasis)” value was 0.
As for `COc1cc2nc(N3CCN(C(=O)C4COc5ccccc5O4)CC3)nc(N)c2cc1OC` (centres undefined) [DOXAZOSIN], the “Hepatotoxicity (steatosis)” value in data set [1] came out at 0. The entries for the “Hepatotoxicity (moderate)” value in [2] and in data set [3] were 2 and 2.9%, respectively. In data set [4], the “Hepatotoxicity (chronic liver disease)” value came to 0. Moreover, the “Hepatotoxicity (cytolytic)” value in data set [5] was found to be 0. The “Hepatotoxicity (acute)” value in [6] is 0; in data set [11] it was 0%. Moreover, the “Hepatotoxicity (association with vascular disease)” value in data set [7] turned out to be 0. Also, the “Hepatotoxicity (granulomatous hepatitis)” value in [8] is recorded as 0. The “Hepatotoxicity (cirrhosis)” value in [9] came out at 0. The “Hepatotoxicity (benign tumour)” value in data set [10] is given as 0. The “Hepatotoxicity (malignant tumour)” value in data set [12] is on record as 0. Besides, in data set [13], the “Hepatotoxicity (severe hepatitis)” value is 0. Besides, the “Hepatotoxicity (choleostasis)” value in [14] was 0.
`CC/C(=C(/c1ccc(OCCN(C)C)cc1)c1cccc(O)c1)c1ccccc1` [DROLOXIFENE]: the “Hepatotoxicity (steatosis)” value in data set [1] is 0. Further, the “Hepatotoxicity (moderate)” value worked out at 4 in [2] and 6.6% in [3]. Further, the “Hepatotoxicity (chronic liver disease)” value in [4] was determined as 0. Further, in data set [5], the “Hepatotoxicity (cytolytic)” value is 0. Moreover, the “Hepatotoxicity (acute)” value in data set [6] was found to be 0; in [11], 0%. Further, the “Hepatotoxicity (association with vascular disease)” value in data set [7] is recorded as 0. For the same compound, the “Hepatotoxicity (granulomatous hepatitis)” value in data set [8] came out at 0. Besides, the “Hepatotoxicity (cirrhosis)” value in [9] came out at 0. For the same compound, in data set [10], the “Hepatotoxicity (benign tumour)” value amounted to 0. In addition, the “Hepatotoxicity (malignant tumour)” value in data set [12] is listed as 0. For the same compound, the “Hepatotoxicity (severe hepatitis)” value in data set [13] is 0. In addition, in data set [14], the “Hepatotoxicity (choleostasis)” value came out at 0.
For the compound `CCC(Cc1cnc2nc(N)nc(N)c2n1)c1ccc(C(=O)N[C@@H](CCC(=O)O)C(=O)O)cc1` (some centres undefined) [EDATREXATE], the “Hepatotoxicity (steatosis)” value in [1] is 0. Also, the “Hepatotoxicity (moderate)” value in data set [2] was 8; in [3] it was 30%. Moreover, the “Hepatotoxicity (chronic liver disease)” value in [4] worked out at 0. The “Hepatotoxicity (cytolytic)” value in [5] worked out at 2. For the same compound, the “Hepatotoxicity (acute)” value in data set [6] turned out to be 2; in data set [11], 3.2%. In data set [7], the “Hepatotoxicity (association with vascular disease)” value amounted to 0. For the same compound, the “Hepatotoxicity (granulomatous hepatitis)” value in data set [8] is on record as 0. Moreover, the “Hepatotoxicity (cirrhosis)” value in data set [9] is reported as 0. For the same compound, the “Hepatotoxicity (benign tumour)” value in data set [10] was 0. In addition, the “Hepatotoxicity (malignant tumour)” value in data set [12] worked out at 0. Further, the “Hepatotoxicity (severe hepatitis)” value in data set [13] amounted to 0. The “Hepatotoxicity (choleostasis)” value in [14] came to 0.
With `NCCCC(N)(C(=O)O)C(F)F` (centres undefined) [EFLORNITHINE], the “Hepatotoxicity (steatosis)” value in data set [1] is listed as 0. For the same compound, the “Hepatotoxicity (moderate)” value is reported as 1 in data set [2] and 0% in data set [3]. In addition, in data set [4], the “Hepatotoxicity (chronic liver disease)” value stood at 0. In data set [5], the “Hepatotoxicity (cytolytic)” value is recorded as 0. Further, the results for the “Hepatotoxicity (acute)” value in [6] and in [11] were 0 and 0%, respectively. Also, in [7], the “Hepatotoxicity (association with vascular disease)” value is listed as 0. Also, the “Hepatotoxicity (granulomatous hepatitis)” value in data set [8] came out at 0. For the same compound, in data set [9], the “Hepatotoxicity (cirrhosis)” value was determined as 0. For the same compound, the “Hepatotoxicity (benign tumour)” value in data set [10] amounted to 0. In data set [12], the “Hepatotoxicity (malignant tumour)” value stood at 0. Also, the “Hepatotoxicity (severe hepatitis)” value in data set [13] worked out at 0. Besides, the “Hepatotoxicity (choleostasis)” value in data set [14] stood at 0.
Consider `COc1ccc(C(=O)Nc2ccccc2CCC2CCCCN2C)cc1` (centres undefined) [ENCAINIDE], for which, in data set [1], the “Hepatotoxicity (steatosis)” value is 0. For the same compound, the “Hepatotoxicity (moderate)” value in data set [2] is given as 0; in [3], 0%. For the same compound, the “Hepatotoxicity (chronic liver disease)” value in data set [4] came to 0. In data set [5], the “Hepatotoxicity (cytolytic)” value is listed as 0. In addition, the “Hepatotoxicity (acute)” value in [6] worked out at 1; in data set [11], 0%. Besides, in [7], the “Hepatotoxicity (association with vascular disease)” value was 0. Further, the “Hepatotoxicity (granulomatous hepatitis)” value in [8] stood at 0. Further, in data set [9], the “Hepatotoxicity (cirrhosis)” value is given as 0. The “Hepatotoxicity (benign tumour)” value in data set [10] came to 0. In addition, the “Hepatotoxicity (malignant tumour)” value in data set [12] amounted to 0. Also, the “Hepatotoxicity (severe hepatitis)” value in data set [13] stood at 0. Further, the “Hepatotoxicity (choleostasis)” value in data set [14] turned out to be 0.
With `CSc1ccc(C(=O)c2[nH]c(=O)[nH]c2C)cc1` [ENOXIMONE], in [1], the “Hepatotoxicity (steatosis)” value is recorded as 0. Besides, the “Hepatotoxicity (moderate)” value in [2] is 3; in data set [3], 6%. In addition, the “Hepatotoxicity (chronic liver disease)” value in data set [4] was 0. Also, the “Hepatotoxicity (cytolytic)” value in [5] is 0. Moreover, the “Hepatotoxicity (acute)” value was determined as 0 in data set [6] and 0% in data set [11]. For the same compound, the “Hepatotoxicity (association with vascular disease)” value in data set [7] was found to be 0. In data set [8], the “Hepatotoxicity (granulomatous hepatitis)” value turned out to be 0. For the same compound, the “Hepatotoxicity (cirrhosis)” value in [9] was 0. Moreover, the “Hepatotoxicity (benign tumour)” value in data set [10] came to 0. Moreover, in data set [12], the “Hepatotoxicity (malignant tumour)” value was found to be 0. Further, the “Hepatotoxicity (severe hepatitis)” value in [13] was determined as 0. Moreover, in data set [14], the “Hepatotoxicity (choleostasis)” value amounted to 0.
For `CN1C[C@H](C(=O)N[C@]2(C)O[C@@]3(O)[C@@H]4CCCN4C(=O)[C@H](Cc4ccccc4)N3C2=O)C=C2c3cccc4[nH]cc(c34)C[C@H]21` [ERGOTAMINE], the “Hepatotoxicity (steatosis)” value in data set [1] was determined as 0. The “Hepatotoxicity (moderate)” value is recorded as 1 in data set [2] and 35.7% in data set [3]. Further, the “Hepatotoxicity (chronic liver disease)” value in data set [4] was 0. For the same compound, the “Hepatotoxicity (cytolytic)” value in [5] came to 0. Further, the results for the “Hepatotoxicity (acute)” value in data set [6] and in data set [11] were 0 and 0%, respectively. Further, in [7], the “Hepatotoxicity (association with vascular disease)” value is recorded as 0. In [8], the “Hepatotoxicity (granulomatous hepatitis)” value was found to be 0. In addition, the “Hepatotoxicity (cirrhosis)” value in data set [9] worked out at 0. The “Hepatotoxicity (benign tumour)” value in data set [10] turned out to be 0. Also, in [12], the “Hepatotoxicity (malignant tumour)” value is 0. Also, in data set [13], the “Hepatotoxicity (severe hepatitis)” value came to 0. The “Hepatotoxicity (choleostasis)” value in [14] worked out at 0.
`C=C(OC)C(=O)Nc1cc(OC)c(OC)cc1C(=O)O[C@H]1C[C@H](O[C@@H]2C(=O)C(NC(=O)OC)=C3/C(=C\CSSSC)[C@]2(O)C#C/C=C\C#C[C@@H]3O[C@@H]2O[C@H](C)[C@@H](NO[C@H]3C[C@H](O)[C@H](SC)[C@@H](C)O3)[C@H](O)[C@H]2O[C@H]2C[C@H](OC)[C@@H](NC(C)C)CO2)O[C@@H](C)[C@H]1O` [ESPERAMICIN A1]: in data set [1], the “Hepatotoxicity (steatosis)” value came out at 0. Also, the “Hepatotoxicity (moderate)” value is recorded as 1 in [2] and 10.7% in [3]. The “Hepatotoxicity (chronic liver disease)” value in [4] was 0. Further, the “Hepatotoxicity (cytolytic)” value in data set [5] turned out to be 0. Also, the “Hepatotoxicity (acute)” value in data set [6] was found to be 0; in data set [11], 0%. In addition, the “Hepatotoxicity (association with vascular disease)” value in [7] is given as 0. The “Hepatotoxicity (granulomatous hepatitis)” value in data set [8] is 0. Also, the “Hepatotoxicity (cirrhosis)” value in [9] stood at 0. In data set [10], the “Hepatotoxicity (benign tumour)” value was 0. Moreover, the “Hepatotoxicity (malignant tumour)” value in [12] was found to be 0. In [13], the “Hepatotoxicity (severe hepatitis)” value amounted to 0. The “Hepatotoxicity (choleostasis)” value in [14] is 0.
With `C#CC(O)(/C=C/Cl)CC` (centres undefined) [ETHCHLORVYNOL], the “Hepatotoxicity (steatosis)” value in data set [1] was 0. Also, the “Hepatotoxicity (moderate)” value turned out to be 0 in [2] and 0% in data set [3]. In addition, the “Hepatotoxicity (chronic liver disease)” value in data set [4] turned out to be 0. Besides, the “Hepatotoxicity (cytolytic)” value in data set [5] is 0. In addition, the “Hepatotoxicity (acute)” value in data set [6] is on record as 2; in [11], 0%. Also, the “Hepatotoxicity (association with vascular disease)” value in data set [7] was determined as 0. Also, the “Hepatotoxicity (granulomatous hepatitis)” value in [8] was 0. Besides, in data set [9], the “Hepatotoxicity (cirrhosis)” value is on record as 0. Also, in [10], the “Hepatotoxicity (benign tumour)” value is 0. Besides, the “Hepatotoxicity (malignant tumour)” value in data set [12] turned out to be 0. Further, the “Hepatotoxicity (severe hepatitis)” value in [13] turned out to be 0. Also, the “Hepatotoxicity (choleostasis)” value in data set [14] is recorded as 2.
